IC50 data for 24 molecules are collected here from US8309581B2, “Benzimidazole derivatives” (Hoffmann-La Roche Inc., priority 2009, dated 2012).

This assay has as its target T1, FXR ligand binding domain (Homo sapiens, UniProt Q96RI1).
T1 construct: made in house; host or cells: E. coli BL21 (pLysS)
T1 sequence (Q96RI1 193-472 isoform Q96RI1-2): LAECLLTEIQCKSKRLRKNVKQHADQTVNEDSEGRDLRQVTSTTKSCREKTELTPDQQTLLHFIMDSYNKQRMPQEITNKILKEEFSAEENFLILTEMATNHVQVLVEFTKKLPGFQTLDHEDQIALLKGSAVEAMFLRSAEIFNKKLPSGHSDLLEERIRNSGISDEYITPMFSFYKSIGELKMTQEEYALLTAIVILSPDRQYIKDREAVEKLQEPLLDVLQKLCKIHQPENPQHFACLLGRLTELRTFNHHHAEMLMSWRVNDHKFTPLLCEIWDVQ
Kind of assay: Radioligand Binding Assay (scintillation proximity radioligand displacement). Conditions: GST-FXR LBD fusion protein on SPA beads, test compound 6×10^−9 M to 2.5×10^−5 M. Here is the method: The following tests were carried out in order to determine the activity of the compounds of formula (I). Background information on the binding assay can be found in: Nichols J S et al. “Development of a scintillation proximity assay for peroxisome proliferator-activated receptor gamma ligand binding domain”, (1998) Anal. Biochem. 257: 112-119.
Bacterial and mammalian expression vectors were constructed to produce glutathione-s-transferase (GST) and Gal4 DNA binding domain (GAL) proteins fused to the ligand binding domain (LBD) of human FXR (aa 193-473). To accomplish this, the portions of the sequences encoding the FXR LBD were amplified by polymerase chain reaction (PCR) from a full-length clone by PCR and then subcloned into the plasmid vectors. The final clone was verified by DNA sequence analysis.
The induction, expression, and subsequent purification of GST-LBD fusion protein was performed in E. coli strain BL21 (pLysS) cells by standard methods (Current Protocols in Molecular Biology, Wiley Press, ed. Ausubel et al.).
Radioligand Binding Assay
Binding of test substances to the FXR ligand binding domain was assessed in a radioligand displacement assay. The assay was performed in a buffer consisting of 50 mM Hepes, pH 7.4, 10 mM NaCl, 5 mM MgCl2, 0.01% CHAPS. For each reaction well in a 96-well plate, 40 nM of GST-FXR LBD fusion protein was bound to […] glutathione ytrium silicate SPA beads (PharmaciaAmersham) in a final volume of […] by shaking. A radioligand (e.g., 20 nM of 2,N-dicyclohexyl-2-[2-(2,4 dimethoxy-phenyl)-benzoimidazol-1-yl]-acetamide) and test compounds were added, and scintillation proximity counting was performed. All binding assays were performed in 96-well plates and the amount of bound ligand was measured on a Packard TopCount using OptiPlates (Packard). Dose response curves were performed within a range of test compound concentrations from 6×10^−9 M to 2.5×10^−5 M and IC50 values were calculated.
As for `c1ccc(-c2nc3ccccc3n2CC2CCCCC2)c(CCc2ccc(-c3nnn[nH]3)cc2)c1` [Example 80, 1-Cyclohexylmethyl-2-(2-{2-[4-(1H-tetrazol-5-yl)-phenyl]-ethyl}-phenyl)-1H-benzoimidazole], the IC50 (commonly the concentration at which inhibition is half-maximal) came to 30 nM. That is a double-digit nanomolar value.
On to `Fc1cc2nc(-c3ccc(Cl)cc3OCC3CC3)n(Cc3ccc(-c4nnn[nH]4)cc3F)c2cc1F` [Example 89, 2-(4-Chloro-2-cyclopropylmethoxy-phenyl)-5,6-difluoro-1-[2-fluoro-4-(1H-tetrazol-5-yl)-benzyl]-1H-benzoimidazole], for which the IC50 turned out to be 60 nM. Compared with the last molecule, the IC50 is about 2-fold higher.
The value for `Fc1cc2nc(-c3ccc(Cl)cc3OCc3ccc(-c4nnn[nH]4)c(F)c3)n(CC3CCCCC3)c2cc1F` [Example 33, 2-{4-Chloro-2-[3-fluoro-4-(1H-tetrazol-5-yl)-benzyloxy]-phenyl}-1-cyclohexylmethyl-5,6-difluoro-1H-benzoimidazole] was 40 nM; that for `O=C(Nc1cc(Cl)ccc1-c1nc2cc(F)c(F)cc2n1CC1CCCCC1)c1ccc(-c2nnn[nH]2)cc1F` [Example 84, N-[5-Chloro-2-(1-cyclohexylmethyl-5,6-difluoro-1H-benzoimidazol-2-yl)-phenyl]-2-fluoro-4-(1H-tetrazol-5-yl)-benzamide] was 0.2 nM.
The molecule `Fc1cc2nc(-c3ccc(Cl)cc3OCC3CCCC3)n(Cc3ccc(-c4nnn[nH]4)c(F)c3)c2cc1F` [Example 69, 2-(4-Chloro-2-cyclopentylmethoxy-phenyl)-5,6-difluoro-1-[3-fluoro-4-(1H-tetrazol-5-yl)-benzyl]-1H-benzoimidazole] displayed an IC50 of 80 nM.
In turn, `Fc1cc2nc(-c3ccc(Cl)cc3OCc3ccc(-c4nnn[nH]4)cc3F)n(CC3CCOCC3)c2cc1F` [Example 47, 2-{4-Chloro-2-[2-fluoro-4-(1H-tetrazol-5-yl)-benzyloxy]-phenyl}-5,6-difluoro-1-(tetrahydro-pyran-4-ylmethyl)-1H-benzoimidazole] returned an IC50 of 900 nM.
The molecule `Fc1cc2nc(-c3ccc(Cl)cc3OCC3CC3)n(Cc3ccccc3)c2cc1F` [Example 50, 1-Benzyl-2-(4-chloro-2-cyclopropylmethoxy-phenyl)-5,6-difluoro-1H-benzoimidazole] came in with an IC50 of 1900 nM.
The molecule `CCC(CC)COc1cc(Cl)ccc1-c1nc2cc(F)c(F)cc2n1Cc1ccc(-c2nnn[nH]2)cc1F` [Example 88, 2-[4-Chloro-2-(2-ethyl-butoxy)-phenyl]-5,6-difluoro-1-[2-fluoro-4-(1H-tetrazol-5-yl)-benzyl]-1H-benzoimidazole] had an IC50 of 10 nM.
Under `Fc1cc2nc(-c3ccc(Cl)cc3OC3CCCCC3)n(Cc3ccc(-c4nnn[nH]4)cc3F)c2cc1F` [Example 96, 2-(4-Chloro-2-cyclohexyloxy-phenyl)-5,6-difluoro-1-[2-fluoro-4-(1H-tetrazol-5-yl)-benzyl]-1H-benzoimidazole] stands 20 nM; under `Fc1cc2nc(-c3ccc(Cl)cc3OCc3cccc(-c4nnn[nH]4)c3)n(CC3CCCCC3)c2cc1F` [Example 30, 2-{4-Chloro-2-[3-(1H-tetrazol-5-yl)-benzyloxy]-phenyl}-1-cyclohexylmethyl-5,6-difluoro-1H-benzoimidazole], 400 nM.
The value for `Fc1cc2nc(-c3ccc(Cl)cc3OCC3CCCC3)n(Cc3cccc(Cl)c3)c2cc1F` [Example 54, 1-(3-Chloro-benzyl)-2-(4-chloro-2-cyclopentylmethoxy-phenyl)-5,6-difluoro-1H-benzoimidazole] was 1200 nM.
The value for `Fc1cc2nc(-c3ccc(Cl)cc3OCc3ccc(-c4nnn[nH]4)cc3)n(CC3CCCCC3)c2cc1F` [Example 31, 2-{4-Chloro-2-[4-(1H-tetrazol-5-yl)-benzyloxy]-phenyl}-1-cyclohexylmethyl-5,6-difluoro-1H-benzoimidazole] was 50 nM; that for `O=C(O)c1ccc(CCc2ccccc2-c2nc3cc(F)c(F)cc3n2CC2CCCCC2)cc1` [Example 77, 4-{2-[2-(1-Cyclohexylmethyl-5,6-difluoro-1H-benzoimidazol-2-yl)-phenyl]-ethyl}-benzoic acid] was 30 nM.
Take `Fc1cc2nc(-c3ccc(Cl)cc3OCC3CCCCC3)n(CC3CCCCC3)c2cc1F` [Example 22, 2-(4-Chloro-2-cyclohexylmethoxy-phenyl)-1-cyclohexylmethyl-5,6-difluoro-1H-benzoimidazole]: the IC50 came to 200 nM.
Under `Fc1cc2nc(-c3ccccc3CCc3ccc(-c4nnn[nH]4)cc3)n(CC3CCCCC3)c2cc1F` [Example 76, 1-Cyclohexylmethyl-5,6-difluoro-2-(2-{2-[4-(1H-tetrazol-5-yl)-phenyl]-ethyl}-phenyl)-1H-benzoimidazole] stands 100 nM; under `O=C(O)c1ccc(CCOc2cc(Cl)ccc2-c2nc3cc(F)c(F)cc3n2CC2CCCCC2)cc1` [Example 27, 4-{2-[5-Chloro-2-(1-cyclohexylmethyl-5,6-difluoro-1H-benzoimidazol-2-yl)-phenoxy]-ethyl}-benzoic acid], 500 nM; under `Fc1cc2nc(-c3ccc(Cl)cc3C#Cc3ccc(-c4nnn[nH]4)cc3)n(CC3CCCCC3)c2cc1F` [Example 72, 2-{4-Chloro-2-[4-(1H-tetrazol-5-yl)-phenylethynyl]-phenyl}-1-cyclohexylmethyl-5,6-difluoro-1H-benzoimidazole], 3600 nM.
The value for `O=C(O)Cc1ccc(COc2cc(Cl)ccc2-c2nc3cc(F)c(F)cc3n2CC2CCCCC2)cc1` [Example 28, {4-[5-Chloro-2-(1-cyclohexylmethyl-5,6-difluoro-1H-benzoimidazol-2-yl)-phenoxymethyl]-phenyl}-acetic acid] was 200 nM; that for `Fc1cc2nc(-c3ccc(Cl)cc3OCc3ccccc3Cl)n(Cc3cccc(Cl)c3)c2cc1F` [Example 53, 1-(3-Chloro-benzyl)-2-[4-chloro-2-(2-chloro-benzyloxy)-phenyl]-5,6-difluoro-1H-benzoimidazole] was 1700 nM; that for `Clc1ccc(-c2nc3ccccc3n2CC2CCCCC2)c(CCc2ccc(-c3nnn[nH]3)cc2)c1` [Example 74, 2-(4-Chloro-2-{2-[4-(1H-tetrazol-5-yl)-phenyl]-ethyl}-phenyl)-1-cyclohexylmethyl-1H-benzoimidazole] was 30 nM.
Take `Fc1cc2nc(-c3cccnc3OCc3ccccc3Cl)n(Cc3ccccc3)c2cc1F` [Example 6, 1-Benzyl-2-[2-(2-chloro-benzyloxy)-pyridin-3-yl]-5,6-difluoro-1H-benzoimidazole]: the IC50 was found to be 1800 nM.
Under `Fc1cc2nc(-c3ccc(Cl)cc3OCc3ccccc3Cl)n(CC3CCCCC3)c2cc1F` [Example 19, 2-[4-Chloro-2-(2-chloro-benzyloxy)-phenyl]-1-cyclohexylmethyl-5,6-difluoro-1H-benzoimidazole] stands 300 nM; under `O=C(O)C1CCC(COc2cc(Cl)ccc2-c2nc3cc(F)c(F)cc3n2CC2CCCCC2)CC1` (stereo not drawn) [Example 29, 4-[5-Chloro-2-(1-cyclohexylmethyl-5,6-difluoro-1H-benzoimidazol-2-yl)-phenoxymethyl]-cyclohexane carboxylic acid], 700 nM.
The value for `CC1CCC(Cn2c(-c3ccccc3CCc3ccc(-c4nnn[nH]4)cc3)nc3ccccc32)CC1` (stereo not drawn) [Example 82, 1-(4-Methyl-cyclohexylmethyl)-2-(2-{2-[4-(1H-tetrazol-5-yl)-phenyl]-ethyl}-phenyl)-1H-benzoimidazole] was 10 nM.
